pIC50: −log10 of the molar value.
Biological target: T1, JAK2 (Homo sapiens, UniProt O60674)
T1 construct: purchased Carna Biosciences
Test: JAK2 microfluidic kinase assay (Caliper EZ Reader II, FAM labeled peptide substrate)
Type: biochemical
Details: IC50 JAK2 ([…]) (Km ATP), Km ATP
Method: Compounds were tested against JAK1, JAK2, JAK2V617F and TYK2. Assay Formats: JAK activity was determined in the reaction buffer 50 mM HEPES, 0.01% Brij35, 10 mM MgCl2, 2 mM DTT by a microfluidic assay. The phosphorylation of a FAM labeled peptide substrate was monitored in the Caliper EZ Reader II (Perkin Elmer). The assay condition for each batch of enzyme (Carna Biosciences) was optimized to obtain 10% conversion rate of peptide substrate. The test compounds were dissolved in DMSO to a stock concentration of 10 mM. 3-fold serially diluted compounds with top concentration of 5 μM were pre-incubated with JAK1, JAK2, JAK2V617F or TYK2 at indicated concentrations for 10 min at ambient temperature. The final DMSO concentration of assay mixture was 1%. […] The reaction was stopped by adding 50 mM EDTA. […] The percent inhibition was calculated by the following formula. % Inhibition=(Conversionmax−Conversionsample)/(Conversionmax−Conversionmin)*100 • Conversionmax means the conversion rate in the positive well without addition of compound • Conversionmin means the conversion rate in the well without addition of enzyme • Conversionsample means the conversion rate of test compounds The dose-response (percent inhibition) curve was plotted and IC50 values were determined by GraphPad software.

T1 sequence (O60674 whole entry): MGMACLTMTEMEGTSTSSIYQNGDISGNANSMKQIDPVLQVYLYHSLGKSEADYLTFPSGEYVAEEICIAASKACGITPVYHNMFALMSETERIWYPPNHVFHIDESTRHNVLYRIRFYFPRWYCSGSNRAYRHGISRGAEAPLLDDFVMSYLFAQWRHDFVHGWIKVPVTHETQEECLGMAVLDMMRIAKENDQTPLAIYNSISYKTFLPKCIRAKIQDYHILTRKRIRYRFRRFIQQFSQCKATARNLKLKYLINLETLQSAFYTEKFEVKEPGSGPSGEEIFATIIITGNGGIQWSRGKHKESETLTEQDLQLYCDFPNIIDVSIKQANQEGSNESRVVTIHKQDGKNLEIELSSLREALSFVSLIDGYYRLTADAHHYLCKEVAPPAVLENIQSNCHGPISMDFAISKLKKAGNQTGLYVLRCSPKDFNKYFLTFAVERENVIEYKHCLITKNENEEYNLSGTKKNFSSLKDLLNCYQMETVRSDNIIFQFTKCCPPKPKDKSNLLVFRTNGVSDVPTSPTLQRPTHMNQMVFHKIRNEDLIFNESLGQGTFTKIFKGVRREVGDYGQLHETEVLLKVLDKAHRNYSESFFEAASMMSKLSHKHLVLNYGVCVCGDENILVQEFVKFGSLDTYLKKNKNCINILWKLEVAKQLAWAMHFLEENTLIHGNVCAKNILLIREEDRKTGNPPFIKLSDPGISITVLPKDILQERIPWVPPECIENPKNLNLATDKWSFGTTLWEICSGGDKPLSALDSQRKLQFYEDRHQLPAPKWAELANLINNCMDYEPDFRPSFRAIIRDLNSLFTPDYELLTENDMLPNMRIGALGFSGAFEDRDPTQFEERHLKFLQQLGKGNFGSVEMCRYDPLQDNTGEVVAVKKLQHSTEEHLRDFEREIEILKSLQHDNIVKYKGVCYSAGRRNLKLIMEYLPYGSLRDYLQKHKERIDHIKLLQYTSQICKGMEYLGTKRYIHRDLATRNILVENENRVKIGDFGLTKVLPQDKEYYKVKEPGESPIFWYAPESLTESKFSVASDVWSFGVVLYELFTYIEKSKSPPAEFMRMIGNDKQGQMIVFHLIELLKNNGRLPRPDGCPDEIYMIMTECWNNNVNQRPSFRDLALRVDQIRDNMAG

N#CCNC(=O)c1ccc(-c2nc(Nc3cnn(CC(F)(F)F)c3)ncc2F)cc1F [Example 130, N-(cyanomethyl)-2-fluoro-4-(5-fluoro-2-((1-(2,2,2-trifluoroethyl)-1H-pyrazol-4-yl)amino)pyrimidin-4-yl)benzamide] was tested, and the pIC50 was 7.24.

With Cc1cnc(Nc2cnn(C3CCN(CC#N)CC3)c2)nc1-c1ccc(C(=O)N2CC(C#N)C2)cc1 [Example 23, 1-(4-(2-((1-(1-(Cyanomethyl)piperidin-4-yl)-1H-pyrazol-4-yl)amino)-5-methylpyrimidin-4-yl)benzoyl)azetidine-3-carbonitrile] the pIC50 was 8.54.

For N#CC1CN(C(=O)c2ccc(-c3nc(Nc4cnn(C5CC5)c4)ncc3F)cc2F)C1 [Example 127, 1-(4-(2-((1-Cyclopropyl-1H-pyrazol-4-yl)amino)-5-fluoropyrimidin-4-yl)-2-fluorobenzoyl)azetidine-3-carbonitrile], the pIC50 was 7.27.

Compound C[C@@H](C#N)NC(=O)c1ccc(-c2ccnc(Nc3cnn(C4CC4)c3)n2)cc1F [Example 142, (S)—N-(1-Cyanoethyl)-4-(2-((1-cyclopropyl-1H-pyrazol-4-yl)amino)pyrimidin-4-yl)-2-fluorobenzamide] has a pIC50 of 7.90.

N#CCNC(=O)c1ccc(-c2nc(Nc3cnn(C4CC4)c3)ncc2Cl)cc1F [Example 135, 4-(5-Chloro-2-((1-cyclopropyl-1H-pyrazol-4-yl)amino)pyrimidin-4-yl)-N-(cyanomethyl)-2-fluorobenzamide] was tested, and the pIC50 was 8.55.

Cc1cnc(Nc2cnn(C)c2)nc1-c1ccc(C(=O)NCCN(C)C)cc1 [Example 105, N-(2-(Dimethylamino)ethyl)-4-(5-methyl-2-((1-methyl-1H-pyrazol-4-yl)amino)pyrimidin-4-yl)benzamide] gave a pIC50 of 7.25.

For Cc1cnc(Nc2cnn(C)c2)nc1-c1ccc(C(=O)NCCO)cc1 [Example 8, N-(2-Hydroxyethyl)-4-(5-methyl-2-((1-methyl-1H-pyrazol-4-yl)amino)pyrimidin-4-yl)benzamide], the pIC50 was 7.85.

Compound Cc1cnc(Nc2cnn(C3CCN(C(=O)C4(C)COC4)CC3)c2)nc1-c1ccc(C(=O)NCC#N)cc1 [Example 118, N-(Cyanomethyl)-4-(5-methyl-2-((1-(1-(3-methyloxetane-3-carbonyl)piperidin-4-yl)-1H-pyrazol-4-yl)amino)pyrimidin-4-yl)benzamide] has a pIC50 of over 9.60.

For Cc1cnc(Nc2cnn(C)c2)nc1-c1ccc(C(=O)N2CC(C#N)C2)cc1 [Example 15, 1-(4-(5-Methyl-2-((1-methyl-1H-pyrazol-4-yl)amino)pyrimidin-4-yl)benzoyl)azetidine-3-carbonitrile], the pIC50 was 8.07.

With N#CC1CN(C(=O)c2ccc(-c3ccnc(Nc4cnn(C5CC5)c4)n3)cc2F)C1 [Example 141, 1-(4-(2-((1-Cyclopropyl-1H-pyrazol-4-yl)amino)pyrimidin-4-yl)-2-fluorobenzoyl)azetidine-3-carbonitrile] the pIC50 was 7.39.

In the case of Cc1cnc(Nc2cnn(C)c2)nc1-c1ccc(C(=O)NCC#N)c(F)c1 [Example 100, N-(Cyanomethyl)-2-fluoro-4-(5-methyl-2-((1-methyl-1H-pyrazol-4-yl)amino)pyrimidin-4-yl)benzamide], the pIC50 was 8.36.

Cc1cnc(Nc2cnn(C)c2)nc1-c1ccc(C(=O)NCCCO)cc1 [Example 7, N-(3-Hydroxypropyl)-4-(5-methyl-2-((1-methyl-1H-pyrazol-4-yl)amino)pyrimidin-4-yl)benzamide] gave a pIC50 of 8.00.

Cc1cnc(Nc2cnn(C)c2)nc1-c1ccc(C(=O)N2CC(C#N)C2)c(F)c1 [Example 103, 1-(2-Fluoro-4-(5-methyl-2-((1-methyl-1H-pyrazol-4-yl)amino)pyrimidin-4-yl)benzoyl)azetidine-3-carbonitrile] was tested, and the pIC50 was 7.92.

Compound Cc1cnc(Nc2cnn(C)c2)nc1-c1ccc(C(=O)NC2CC(O)C2)cc1 (centres unmarked) [Example 9, N-(3-Hydroxycyclobutyl)-4-(5-methyl-2-((1-methyl-1H-pyrazol-4-yl)amino)pyrimidin-4-yl)benzamide] has a pIC50 of 7.76.
